Earlier results on one molecule are cited in US20250177336A1 (RX BANDZ, INC., priority 2023, published 2025).

The conditions of the series: zwitterionic form predominates.

Regarding `NC[C@H]1CC[C@H](C(=O)O)CC1` [TXA, Tranexamic acid], the isoelectric point is given as approximately 7.3 pH.
